Test results taken from doi:10.1101/2025.01.13.632836v7 (biorxiv, 2026).

Biological target: hERG potassium channel (Homo sapiens, UniProt Q12809)
Experiment: fluorescence polarization, fluorescent tracer displacement
Format: binding

hERG potassium channel, sequence (Q12809 whole entry): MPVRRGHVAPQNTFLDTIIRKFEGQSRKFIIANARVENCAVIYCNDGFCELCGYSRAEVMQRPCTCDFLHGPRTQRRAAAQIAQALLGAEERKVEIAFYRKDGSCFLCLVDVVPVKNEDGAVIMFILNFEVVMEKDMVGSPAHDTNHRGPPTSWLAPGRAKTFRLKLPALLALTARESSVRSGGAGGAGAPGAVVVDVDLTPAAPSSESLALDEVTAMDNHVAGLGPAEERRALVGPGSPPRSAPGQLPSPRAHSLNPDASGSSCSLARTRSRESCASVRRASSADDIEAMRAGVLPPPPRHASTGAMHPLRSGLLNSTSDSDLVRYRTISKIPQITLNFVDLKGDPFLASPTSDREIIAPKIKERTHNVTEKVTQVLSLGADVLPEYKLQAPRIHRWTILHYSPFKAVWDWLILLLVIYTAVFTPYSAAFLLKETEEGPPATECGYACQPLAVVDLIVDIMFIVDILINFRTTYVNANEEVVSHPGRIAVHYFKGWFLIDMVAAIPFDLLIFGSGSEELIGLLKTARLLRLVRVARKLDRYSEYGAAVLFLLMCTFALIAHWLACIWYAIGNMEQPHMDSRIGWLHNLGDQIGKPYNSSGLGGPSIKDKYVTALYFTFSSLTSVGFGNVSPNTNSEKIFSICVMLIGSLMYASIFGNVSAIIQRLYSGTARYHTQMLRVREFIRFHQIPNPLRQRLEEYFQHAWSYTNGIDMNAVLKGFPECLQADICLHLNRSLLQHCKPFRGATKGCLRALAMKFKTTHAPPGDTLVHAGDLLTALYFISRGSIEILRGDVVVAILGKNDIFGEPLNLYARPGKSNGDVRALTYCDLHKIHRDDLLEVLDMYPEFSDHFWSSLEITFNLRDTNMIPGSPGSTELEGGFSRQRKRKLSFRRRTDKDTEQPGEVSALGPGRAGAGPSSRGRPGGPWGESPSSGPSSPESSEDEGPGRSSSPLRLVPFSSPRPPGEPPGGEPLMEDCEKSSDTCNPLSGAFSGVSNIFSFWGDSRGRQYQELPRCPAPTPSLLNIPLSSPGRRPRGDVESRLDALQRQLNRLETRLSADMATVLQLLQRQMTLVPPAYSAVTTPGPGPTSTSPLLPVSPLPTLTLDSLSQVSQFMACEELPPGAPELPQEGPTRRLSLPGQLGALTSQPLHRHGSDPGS

## Cc1c(-c2ccc(O)cc2)n(Cc2ccc(OCCN3CCCCC3)cc2)c2ccc(O)cc12 [MDL-001]
  IC50: 13 µM
